Assay results taken from patent publication US10131652B2, “Pyrimidinyloxy benzene derivatives as herbicides” (E. I. DU PONT DE NEMOURS AND COMPANY, priority 2014, dated 2018).
Read-outs that look alike come from different tables or passages of the source.

Experiments:
Experiment in all cases: Test D pre-/postemergence plant response
Format in all cases: in vivo
[1] = test system: waterhemp (common waterhemp, Amaranthus rudis); conditions: Amaranthus tuberculatus; for pest or weed control at 16 g/ha: 16 g ai/ha; for pest or weed control at 31 g/ha: 31 g ai/ha; for pest or weed control at 62 g/ha: 62 g ai/ha; for pest or weed control at 125 g/ha: 125 g ai/ha
In short: (§1)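 Ratings were visual, 0 = no effect to 100 = complete control, taken against untreated controls after 13 to 15 days in a greenhouse. Chemicals, formulated in non-phytotoxic surfactant-containing solvent, went onto soil (loam/sand) at planting for preemergence, or onto 1- to 4-leaf plants (2–18 cm) for postemergence.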

[2] = test system: winter wheat (Triticum aestivum); conditions: Triticum aestivum; for plant injury at 16 g/ha: 16 g ai/ha; for plant injury at 31 g/ha: 31 g ai/ha; for plant injury at 62 g/ha: 62 g ai/ha; for plant injury at 125 g/ha: 125 g ai/ha
In short: as §1

[3] = test system: velvetleaf (Abutilon theophrasti); conditions: Abutilon theophrasti; for pest or weed control at 16 g/ha: 16 g ai/ha; for pest or weed control at 31 g/ha: 31 g ai/ha; for pest or weed control at 62 g/ha: 62 g ai/ha; for pest or weed control at 125 g/ha: 125 g ai/ha
In short: as §1

[4] = test system: soybean (Glycine max); conditions: Glycine max; for plant injury at 16 g/ha: 16 g ai/ha; for plant injury at 31 g/ha: 31 g ai/ha; for plant injury at 62 g/ha: 62 g ai/ha; for plant injury at 125 g/ha: 125 g ai/ha
In short: as §1

[5] = test system: morningglory (Ipomoea coccinea); conditions: Ipomoea; for pest or weed control at 16 g/ha: 16 g ai/ha; for pest or weed control at 31 g/ha: 31 g ai/ha; for pest or weed control at 62 g/ha: 62 g ai/ha; for pest or weed control at 125 g/ha: 125 g ai/ha
In short: as §1

[6] = pre-emergence, Preemergence, scale 0 to 100 (0 no effect, 100 complete control), read-out: Plant response rating, Waterhemp
[7] = pre-emergence, Preemergence, scale 0 to 100 (0 no effect, 100 complete control), read-out: Plant response rating, Wheat
[8] = pre-emergence, Preemergence, scale 0 to 100 (0 no effect, 100 complete control), read-out: Plant response rating, Velvetleaf
[9] = pre-emergence, Preemergence, scale 0 to 100 (0 no effect, 100 complete control), read-out: Plant response rating, Soybean
[10] = pre-emergence, Preemergence, scale 0 to 100 (0 no effect, 100 complete control), read-out: Plant response rating, Morningglory

FC(F)(F)c1cc(-c2ccccc2Oc2ncc(Cl)cn2)no1 [Compound 200, 5-chloro-2-[2-[5-(trifluoromethyl)-3-isoxazolyl]phenoxy]pyrimidine]
pest or weed control at 16 g/ha ([1]; post-emergence, Postemergence, read-out: Plant response rating (scale 0 to 100), Waterhemp): 80%
pest or weed control at 31 g/ha ([1]; post-emergence, Postemergence, scale 0 to 100 (0 no effect, 100 complete control), read-out: Waterhemp plant response rating): 90%
pest or weed control at 62 g/ha ([1]; post-emergence, Postemergence, scale 0 to 100, 0 no effect, 100 complete control, read-out: Waterhemp plant response rating): 98%
pest or weed control at 125 g/ha ([1]; post-emergence, Postemergence, scale 0 to 100, 0 no effect, 100 complete control, read-out: Plant response rating, Waterhemp): 100%
pest or weed control at 125 g/ha ([1]; pre-emergence, Preemergence, read-out: Plant response rating (scale 0 to 100), Waterhemp): 100%
pest or weed control at 16 g/ha [1, 6]: 98%
pest or weed control at 31 g/ha [1, 6]: 100%
pest or weed control at 62 g/ha [1, 6]: 100%
plant injury at 16 g/ha ([2]; post-emergence, Postemergence, read-out: Plant response rating (scale 0 to 100), Wheat): 5%
plant injury at 31 g/ha ([2]; post-emergence, Postemergence, scale 0 to 100 (0 no effect, 100 complete control), read-out: Wheat plant response rating): 10%
plant injury at 62 g/ha ([2]; post-emergence, Postemergence, scale 0 to 100, 0 no effect, 100 complete control, read-out: Wheat plant response rating): 25%
plant injury at 125 g/ha ([2]; post-emergence, Postemergence, scale 0 to 100, 0 no effect, 100 complete control, read-out: Plant response rating, Wheat): 20%
plant injury at 125 g/ha ([2]; pre-emergence, Preemergence, read-out: Plant response rating (scale 0 to 100), Wheat): 40%
plant injury at 16 g/ha [2, 7]: 0%
plant injury at 31 g/ha [2, 7]: 5%
plant injury at 62 g/ha [2, 7]: 20%
pest or weed control at 16 g/ha ([3]; post-emergence, Postemergence, read-out: Plant response rating (scale 0 to 100), Velvetleaf): 30%
pest or weed control at 31 g/ha ([3]; post-emergence, Postemergence, scale 0 to 100 (0 no effect, 100 complete control), read-out: Velvetleaf plant response rating): 60%
pest or weed control at 62 g/ha ([3]; post-emergence, Postemergence, scale 0 to 100, 0 no effect, 100 complete control, read-out: Velvetleaf plant response rating): 70%
pest or weed control at 125 g/ha ([3]; post-emergence, Postemergence, scale 0 to 100, 0 no effect, 100 complete control, read-out: Plant response rating, Velvetleaf): 75%
pest or weed control at 125 g/ha ([3]; pre-emergence, Preemergence, read-out: Plant response rating (scale 0 to 100), Velvetleaf): 100%
pest or weed control at 16 g/ha [3, 8]: 100%
pest or weed control at 31 g/ha [3, 8]: 100%
pest or weed control at 62 g/ha [3, 8]: 100%
plant injury at 16 g/ha ([4]; post-emergence, Postemergence, read-out: Plant response rating (scale 0 to 100), Soybean): 60%
plant injury at 31 g/ha ([4]; post-emergence, Postemergence, scale 0 to 100 (0 no effect, 100 complete control), read-out: Soybean plant response rating): 85%
plant injury at 62 g/ha ([4]; post-emergence, Postemergence, scale 0 to 100, 0 no effect, 100 complete control, read-out: Soybean plant response rating): 90%
plant injury at 125 g/ha ([4]; post-emergence, Postemergence, scale 0 to 100, 0 no effect, 100 complete control, read-out: Plant response rating, Soybean): 98%
plant injury at 125 g/ha ([4]; pre-emergence, Preemergence, read-out: Plant response rating (scale 0 to 100), Soybean): 85%
plant injury at 16 g/ha [4, 9]: 100%
plant injury at 31 g/ha [4, 9]: 10%
plant injury at 62 g/ha [4, 9]: 40%
pest or weed control at 16 g/ha ([5]; post-emergence, Postemergence, read-out: Plant response rating (scale 0 to 100), Morningglory): 55%
pest or weed control at 31 g/ha ([5]; post-emergence, Postemergence, scale 0 to 100 (0 no effect, 100 complete control), read-out: Morningglory plant response rating): 50%
pest or weed control at 62 g/ha ([5]; post-emergence, Postemergence, scale 0 to 100, 0 no effect, 100 complete control, read-out: Morningglory plant response rating): 85%
pest or weed control at 125 g/ha ([5]; post-emergence, Postemergence, scale 0 to 100, 0 no effect, 100 complete control, read-out: Plant response rating, Morningglory): 98%
pest or weed control at 125 g/ha ([5]; pre-emergence, Preemergence, read-out: Plant response rating (scale 0 to 100), Morningglory): 90%
pest or weed control at 16 g/ha [5, 10]: 5%
pest or weed control at 31 g/ha [5, 10]: 45%
pest or weed control at 62 g/ha [5, 10]: 70%
